# Key:
# L.taurica = assay: Field efficiency test, tomato powdery mildew; type: in vivo; settings: solar greenhouse
# Method: The formulation of emulsifiable concentrate is the same as that in Embodiment 3.
# Tomatoes (Variety: Song Tian Fen Yang Yang) were planted in a solar greenhouse. 14% of 3-(3',4'-methylenedioxy phenyl)-piperidine acrylate EC was diluted at four concentrations of 1.00, 0.80, 0.667 and 0.50 mg/mL (active ingredients); the control agent, 72% cream urea·manganese zinc WP was diluted at a concentration of 1.00 mg/mL (active ingredients); additionally clear water was used as the control. The first application was started before the onset of L.taurica. The instrument for application was a WS-18D knapsack electric sprayer, which employed a cone nozzle. Each agent was formulated into the desired concentrations according to the usage amount of the control clear water. Both sides of the tomato leaves were sprayed evenly. Thereafter, applications were conducted every 7 days consecutively for 4 times. 10 days after the fourth application, the number of sick leaves at each grade of powdery mildew was investigated following the grading standard of 9 grades, to calculate the disease index and the control effect.
# Leveillula taurica = assay: In-vivo greenhouse control of pepper powdery mildew
# Method: 5.61 g of 3-(3',4'-methylenedioxy phenyl)-piperidine acrylate was weighed and dissolved in 25 g of absolute ethyl alcohol, then 6 g of emulsifier 0203B was added, and mixed uniformly with stirring to get 14% of 3-(3',4'-methylenedioxy phenyl)-piperidine acrylate EC.
# Pepper seedling (Variety: Bell pepper) was carried out in a greenhouse, and the seedlings were transplanted into pots, 3 for each pot. Sick leaves of powdery mildew (Leveillula taurica) were harvested form peppers (Longjiao No. 2) in a solar greenhouse in Jingyuan County, Baiyin City, and formulated into a spore suspension of powdery mildew. Both sides of the pepper leaves were sprayed evenly with a small hand-held sprayer and inoculated. The first application was started at the early onset of powdery mildew. 14% of 3-(3',4'-methylenedioxy phenyl)-piperidine acrylate EC was diluted at four concentrations of 1.00, 0.667, 0.50 and 0.40 mg/mL (active ingredients); the control agent, 12.5% of myclobutanil EC, was diluted at a concentration of 0.063 mg/mL (active ingredients); additionally clear water was used as the control. The instrument for application is a small hand-held sprayer. Both sides of the leaves were sprayed evenly so that the leaves were wetted by the liquor without loss. Applications were conducted every 7 days consecutively for 3 times. 10 days after the third application, the disease extent of powdery mildew in the upper, middle and lower 3 leaves of each plant was investigated, to calculate the disease index and the control effect.
smiles,measurement,setting,value
"O=C(/C=C/c1ccc2c(c1)OCO2)N1CCCCC1 [3-(3',4'-methylenedioxyphenyl)-piperidine acrylate]",Control Effect,L.taurica; 0.50 mg/mL,81.68%
same,Control Effect,L.taurica; 0.667 mg/mL,88.19%
same,Control Effect,L.taurica; 0.80 mg/mL,90.36%
same,Control Effect,L.taurica; 1.00 mg/mL,97.85%
same,Control Effect,Leveillula taurica; 0.50 mg/mL,75.56%
same,Control Effect,Leveillula taurica; 0.667 mg/mL,84.56%
same,Control Effect,Leveillula taurica; 1.00 mg/mL,100%

# From patent publication EP3818828A1 (priority 2019, dated 2021)
